Experimental data published in patent publication US10457679B2, “Imidazo[4,5-c]quinolin-2-one compounds and their use in treating cancer” (AstraZeneca AB, priority 2015, dated 2019).

Legend:
Assay type in all cases: cell-based
ATM kinase = molecular target: T1, ATM kinase (Homo sapiens, UniProt Q13315); experiment: Assay a) ATM cellular potency (pATM Ser1981 in X-ray irradiated HT29 cells); settings: HT29 cells, 1 h compound, X-ray ~600 cGy, pATM Ser1981; may be geometric mean of several tests; read-out: Assay a) ATM Cell IC50
T1 construct: endogenous in cells; host or cells: HT29 cells (ECACC #85061109)
Procedure: The following assays were used to measure the effects of the compounds of the present invention: a) ATM cellular potency assay; b) PI3K cellular potency assay; c) mTOR cellular potency assay; d) ATR cellular potency assay. During the description of the assays, generally: • i. […] IC50 values were calculated using a smart fitting model in Genedata. […] Assay a): ATM Cellular Potency Rationale:
Most ATM molecules in the cell are rapidly phosphorylated on this site after doses of radiation as low as 0.5 Gy, and binding of a phosphospecific antibody is detectable after the introduction of only a few DNA double-strand breaks in the cell.
The rationale of the pATM assay is to identify inhibitors of ATM in cells. HT29 cells are incubated with test compounds for 1 hr prior to X-ray-irradiation. 1 h later the cells are fixed and stained for pATM (Ser1981). The fluorescence is read on the arrayscan imaging platform.
The following morning compounds of Formula (I) in 100% DMSO were added to assay plates by acoustic dispensing. After 1 h incubation at 37° C. and 5% CO2, plates (up to 6 at a time) were irradiated using the X-RAD 320 instrument (PXi) with equivalent to ˜600 cGy. Plates were returned to the incubator for a further 1 h. […] Then 20 μl of 0.1% Triton X100 in PBS was added and incubated for 20 minutes at r.t., to permeabalise cells. Then the plates were washed once with 50 μl/well PBS, using a Biotek EL405 plate washer.
After 1 h incubation at r.t., the plates were washed three times with 50 μl/well PBS, using a Biotek EL405 plate washer, and plates were sealed and kept in PBS at 4° C. until read. Plates were read using an ArrayScan VTI instrument, using an XF53 filter with 10× objective.

PI3K-α = PI3K-α (Homo sapiens, UniProt P42336); experiment: Assay c) PI3K cellular potency (phospho-Akt T308 ELISA in BT474 cells); settings: BT474 cells, 2 h, phospho-AKT T308; may be geometric mean of several tests; read-out: Assay c) PI3Kα Cell IC50
Text: Assay c): PI3K Cellular Potency
This assay was used to measure PI3K-α inhibition in cells. PDK1 was identified as the upstream activation loop kinase of protein kinase B (Akt 1), which is essential for the activation of PKB. Activation of the lipid kinase phosphoinositide 3 kinase (PI3K) is critical for the activation of PKB by PDK1.
Following ligand stimulation of receptor tyrosine kinases, PI3K is activated, which converts PIP2 to PIP3, which is bound by the PH domain of PDK1 resulting in recruitment of PDK1 to the plasma membrane where it phosphorylates AKT at Thr308 in the activation loop.
The aim of this cell-based mode of action assay is to identify compounds that inhibit PDK activity or recruitment of PDK1 to membrane by inhibiting PI3K activity. Phosphorylation of phospho-Akt (T308) in BT474c cells following treatment with compounds for 2 h is a direct measure of PDK1 and indirect measure of PI3K activity.
BT474 cells (human breast ductal carcinoma, ATCC HTB-20) were seeded into black 384 well plates (Costar, #3712) at a density of 5600 cells/well in DMEM containing 10% FBS and 1% glutamine and allowed to adhere overnight.
The following morning compounds in 100% DMSO were added to assay plates by acoustic dispensing. After a 2 h incubation at 37° C. and 5% CO2, the medium was aspirated and the cells were lysed with a buffer containing 25 mM Tris, 3 mM EDTA, 3 mM EGTA, 50 mM sodium fluoride, 2 mM Sodium orthovanadate, 0.27M sucrose, 10 mM β-glycerophosphate, 5 mM sodium pyrophosphate, 0.5% Triton X-100 and complete protease inhibitor cocktail tablets (Roche #04 693 116 001, used 1 tab per 50 ml lysis buffer).
After 20 minutes, the cell lysates were transferred into ELISA plates (Greiner #781077) which had been pre-coated with an anti total-AKT antibody in PBS buffer and non-specific binding was blocked with 1% BSA in PBS containing 0.05% Tween 20. Plates were incubated over night at 4° C. The next day the plates were washed with PBS buffer containing 0.05% Tween 20 and further incubated with a mouse monoclonal anti-phospho AKT T308 for 2 h. Plates were washed again as above before addition of a horse anti-mouse-HRP conjugated secondary antibody. Following a 2 h incubation at r.t., plates were washed and QuantaBlu substrate working solution (Thermo Scientific #15169, prepared according to provider's instructions) was added to each well. The developed fluorescent product was stopped after 60 minutes by addition of Stop solution to the wells. Plates were read using a Tecan Safire plate reader using 325 nm excitation and 420 nm emission wavelengths respectively. Except where specified, reagents contained in the Path Scan Phospho AKT (Thr308) sandwich ELISA kit from Cell Signalling (#7144) were used in this ELISA assay.

ATR kinase = molecular target: T2, ATR kinase (Homo sapiens, UniProt Q13535); experiment: Assay b) ATR cellular potency (pChk1 Ser345 in HT29 cells after 4NQO); settings: HT29 cells, 4NQO, pChk1 Ser345; may be geometric mean of several tests; read-out: Assay b) ATR Cell IC50
T2 construct: measuring a decrease in phosphorylation of Chk1 (Ser 345) in HT29 cells; endogenous in cells; host or cells: HT29 cells (ECACC #85061109)
Text: Assay b): ATR Cellular Potency
ATR is a PI 3-kinase-related kinase which phosphorylates multiple substrates on serine or threonine residues in response to DNA damage during or replication blocks. Chk1, a downstream protein kinase of ATR, plays a key role in DNA damage checkpoint control. Activation of Chk1 involves phosphorylation of Ser317 and Ser345 (the latter regarded as the preferential target for phosphorylation/activation by ATR).
The following morning compound of Formula (I) in 100% DMSO were added to assay plates by acoustic dispensing. After 1 h incubation at 37° C. and 5% CO2. 40 nl of 3 mM 4NQO in 100% DMSO was added to all wells by acoustic dispensing, except minimum control wells which were left untreated with 4NQO to generate a null response control. Plates were returned to the incubator for a further 1 h. […] Then 20 μl of 0.1% Triton X100 in PBS was added and incubated for 10 minutes at r.t., to permeabalise cells. Then the plates were washed once with 50 μl/well PBS, using a Biotek EL405 plate washer.
After 2 h incubation at r.t., the plates were washed three times with 50 μl/well PBS, using a Biotek EL405 plate washer, and plates were then sealed with black plate seals until read. Plates were read using an ArrayScan VTI instrument, using an XF53 filter with 10× objective.

Chain of PI3K-α (P42336 whole entry): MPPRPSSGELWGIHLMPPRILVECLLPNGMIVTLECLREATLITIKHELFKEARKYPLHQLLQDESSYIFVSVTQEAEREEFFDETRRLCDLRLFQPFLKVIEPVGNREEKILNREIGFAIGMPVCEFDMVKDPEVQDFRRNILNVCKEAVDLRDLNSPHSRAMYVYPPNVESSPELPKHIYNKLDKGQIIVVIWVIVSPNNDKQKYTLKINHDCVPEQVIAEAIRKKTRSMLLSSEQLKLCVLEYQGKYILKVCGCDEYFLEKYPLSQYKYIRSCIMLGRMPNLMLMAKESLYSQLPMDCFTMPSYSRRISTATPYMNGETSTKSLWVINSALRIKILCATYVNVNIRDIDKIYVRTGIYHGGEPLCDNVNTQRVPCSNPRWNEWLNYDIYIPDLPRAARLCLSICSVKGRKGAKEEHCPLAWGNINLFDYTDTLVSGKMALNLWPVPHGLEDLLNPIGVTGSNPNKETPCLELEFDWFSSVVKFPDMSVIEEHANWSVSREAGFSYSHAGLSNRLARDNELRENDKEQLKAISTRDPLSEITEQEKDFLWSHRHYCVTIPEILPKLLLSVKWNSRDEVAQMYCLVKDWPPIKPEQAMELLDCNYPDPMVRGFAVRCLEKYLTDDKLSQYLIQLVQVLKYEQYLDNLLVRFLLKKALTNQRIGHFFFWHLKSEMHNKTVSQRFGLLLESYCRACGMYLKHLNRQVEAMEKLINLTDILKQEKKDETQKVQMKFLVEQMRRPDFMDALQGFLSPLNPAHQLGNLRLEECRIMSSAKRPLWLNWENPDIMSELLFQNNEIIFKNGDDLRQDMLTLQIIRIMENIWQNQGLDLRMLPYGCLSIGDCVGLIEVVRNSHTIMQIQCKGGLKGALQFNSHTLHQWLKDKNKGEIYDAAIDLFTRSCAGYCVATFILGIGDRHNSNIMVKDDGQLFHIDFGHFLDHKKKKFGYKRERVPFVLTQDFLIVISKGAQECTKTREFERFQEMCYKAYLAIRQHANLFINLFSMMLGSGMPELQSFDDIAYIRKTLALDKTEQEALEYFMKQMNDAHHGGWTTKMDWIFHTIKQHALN
T1 sequence (Q13315 whole entry): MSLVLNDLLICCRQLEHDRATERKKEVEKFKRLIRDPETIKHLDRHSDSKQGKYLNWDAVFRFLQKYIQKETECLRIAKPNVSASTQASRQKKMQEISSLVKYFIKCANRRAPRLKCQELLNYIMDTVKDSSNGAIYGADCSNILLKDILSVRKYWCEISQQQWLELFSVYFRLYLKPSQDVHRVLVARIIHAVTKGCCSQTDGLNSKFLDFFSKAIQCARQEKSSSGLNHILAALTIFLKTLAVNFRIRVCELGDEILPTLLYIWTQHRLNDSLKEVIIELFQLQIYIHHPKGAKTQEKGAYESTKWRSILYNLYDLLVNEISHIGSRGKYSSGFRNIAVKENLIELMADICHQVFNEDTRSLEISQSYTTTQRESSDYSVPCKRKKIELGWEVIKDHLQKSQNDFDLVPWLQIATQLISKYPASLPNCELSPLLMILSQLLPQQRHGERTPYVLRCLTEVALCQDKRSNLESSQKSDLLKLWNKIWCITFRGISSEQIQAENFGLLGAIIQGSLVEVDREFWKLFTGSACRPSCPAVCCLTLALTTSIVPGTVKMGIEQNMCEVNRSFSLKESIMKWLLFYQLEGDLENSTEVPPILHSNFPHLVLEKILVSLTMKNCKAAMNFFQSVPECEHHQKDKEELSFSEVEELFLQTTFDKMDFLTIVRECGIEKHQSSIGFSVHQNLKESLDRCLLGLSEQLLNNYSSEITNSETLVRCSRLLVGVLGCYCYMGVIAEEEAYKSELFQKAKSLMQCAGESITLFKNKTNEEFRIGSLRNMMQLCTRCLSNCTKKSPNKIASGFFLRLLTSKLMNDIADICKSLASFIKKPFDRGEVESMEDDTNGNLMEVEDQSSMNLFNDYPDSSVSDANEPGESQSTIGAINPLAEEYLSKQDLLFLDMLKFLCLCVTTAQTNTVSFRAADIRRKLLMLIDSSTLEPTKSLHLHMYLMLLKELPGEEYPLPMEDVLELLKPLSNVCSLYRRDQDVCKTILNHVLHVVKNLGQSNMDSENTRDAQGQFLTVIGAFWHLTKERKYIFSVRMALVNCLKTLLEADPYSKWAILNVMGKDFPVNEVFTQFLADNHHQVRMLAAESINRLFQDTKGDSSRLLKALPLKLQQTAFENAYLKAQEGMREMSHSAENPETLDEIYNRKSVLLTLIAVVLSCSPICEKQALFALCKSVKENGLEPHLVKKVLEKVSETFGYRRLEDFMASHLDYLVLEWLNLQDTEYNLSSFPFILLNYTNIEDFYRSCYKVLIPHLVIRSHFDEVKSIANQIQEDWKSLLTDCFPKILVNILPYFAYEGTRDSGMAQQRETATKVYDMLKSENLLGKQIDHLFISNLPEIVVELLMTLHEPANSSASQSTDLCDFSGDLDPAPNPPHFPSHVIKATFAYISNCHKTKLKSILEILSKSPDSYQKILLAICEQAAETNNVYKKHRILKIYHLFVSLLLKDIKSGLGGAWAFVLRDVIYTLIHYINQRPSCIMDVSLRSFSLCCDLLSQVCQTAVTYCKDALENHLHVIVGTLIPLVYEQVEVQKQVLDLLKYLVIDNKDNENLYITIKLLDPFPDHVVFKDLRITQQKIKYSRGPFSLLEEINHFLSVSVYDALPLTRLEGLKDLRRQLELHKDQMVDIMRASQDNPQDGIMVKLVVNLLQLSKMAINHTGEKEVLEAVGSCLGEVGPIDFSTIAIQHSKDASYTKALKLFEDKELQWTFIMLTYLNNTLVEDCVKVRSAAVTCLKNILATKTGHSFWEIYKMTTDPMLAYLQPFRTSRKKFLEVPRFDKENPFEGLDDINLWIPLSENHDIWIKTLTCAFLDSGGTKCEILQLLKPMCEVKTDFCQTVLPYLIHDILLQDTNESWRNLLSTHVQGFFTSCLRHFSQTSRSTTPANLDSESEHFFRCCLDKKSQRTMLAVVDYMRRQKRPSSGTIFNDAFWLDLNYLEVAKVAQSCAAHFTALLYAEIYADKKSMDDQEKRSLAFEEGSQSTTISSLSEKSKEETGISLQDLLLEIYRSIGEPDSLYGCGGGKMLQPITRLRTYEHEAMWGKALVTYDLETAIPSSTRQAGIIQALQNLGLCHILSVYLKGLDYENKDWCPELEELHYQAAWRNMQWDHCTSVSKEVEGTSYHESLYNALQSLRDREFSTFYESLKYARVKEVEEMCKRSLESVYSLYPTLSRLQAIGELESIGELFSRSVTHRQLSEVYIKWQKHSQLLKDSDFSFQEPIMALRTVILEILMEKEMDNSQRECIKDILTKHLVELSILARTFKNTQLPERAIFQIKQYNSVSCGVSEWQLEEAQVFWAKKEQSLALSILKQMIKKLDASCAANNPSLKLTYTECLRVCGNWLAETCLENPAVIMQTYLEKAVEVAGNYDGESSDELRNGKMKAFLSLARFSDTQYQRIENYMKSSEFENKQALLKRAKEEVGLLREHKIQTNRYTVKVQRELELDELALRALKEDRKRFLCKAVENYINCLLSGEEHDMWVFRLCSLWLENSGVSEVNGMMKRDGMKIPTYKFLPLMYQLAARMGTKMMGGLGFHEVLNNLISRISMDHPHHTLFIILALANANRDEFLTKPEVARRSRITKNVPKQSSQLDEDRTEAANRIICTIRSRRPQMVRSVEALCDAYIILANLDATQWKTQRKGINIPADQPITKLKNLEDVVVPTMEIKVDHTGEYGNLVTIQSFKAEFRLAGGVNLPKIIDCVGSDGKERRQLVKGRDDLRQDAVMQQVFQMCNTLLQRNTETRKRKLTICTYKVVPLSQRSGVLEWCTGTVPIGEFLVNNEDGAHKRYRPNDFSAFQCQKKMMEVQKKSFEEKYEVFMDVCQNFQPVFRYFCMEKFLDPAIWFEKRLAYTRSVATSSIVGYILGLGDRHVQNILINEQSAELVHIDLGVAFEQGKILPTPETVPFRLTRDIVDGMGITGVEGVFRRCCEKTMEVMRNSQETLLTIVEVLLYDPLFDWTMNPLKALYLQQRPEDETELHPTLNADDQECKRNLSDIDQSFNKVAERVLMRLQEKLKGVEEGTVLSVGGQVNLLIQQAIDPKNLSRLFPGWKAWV

IC50 (ATM kinase)	IC50 (PI3K-α)	IC50 (ATR kinase)	Structure (SMILES)
0.686 nM	6.18 µM	> 30 µM	CC(C)n1c(=O)n(C)c2cnc3ccc(-c4ccc(OCCCN(C)C)nc4F)cc3c21 [Example 10, 8-[6-[3-(dimethylamino)propoxy]-2-fluoro-3-pyridyl]-1-isopropyl-3-methyl-imidazo[4,5-c]quinolin-2-one]
0.799 nM	2.89 µM	> 30 µM	CC(C)n1c(=O)n(C)c2cnc3ccc(-c4ccc(OCCCN5CCCC5)nc4F)cc3c21 [Example 12, 8-[2-fluoro-6-(3-pyrrolidin-1-ylpropoxy)-3-pyridyl]-1-isopropyl-3-methyl-imidazo[4,5-c]quinolin-2-one]
1.32 nM	22.9 µM	> 30 µM	CC(C)n1c(=O)n(C)c2cnc3cc(F)c(-c4ccc(OCCCN5CCCC5)nc4F)cc3c21 [Example 13, 7-fluoro-8-[2-fluoro-6-(3-pyrrolidin-1-ylpropoxy)-3-pyridyl]-1-isopropyl-3-methyl-imidazo[4,5-c]quinolin-2-one]
3.51 nM	> 30 µM	> 30 µM	CC(C)n1c(=O)n(C)c2cnc3cc(F)c(-c4ccc(OCCCN5CCCCC5)nc4F)cc3c21 [Example 14, 7-fluoro-8-[2-fluoro-6-[3-(1-piperidyl)propoxy]-3-pyridyl]-1-isopropyl-3-methyl-imidazo[4,5-c]quinolin-2-one]
2.29 nM	9.08 µM	> 30 µM	CC(C)n1c(=O)n(C)c2cnc3cc(F)c(-c4ccc(OCCCN5CCC5)nc4F)cc3c21 [Example 16, 8-[6-[3-(azetidin-1-yl)propoxy]-2-fluoro-3-pyridyl]-7-fluoro-1-isopropyl-3-methyl-imidazo[4,5-c]quinolin-2-one]
3.14 nM	> 30 µM	> 30 µM	CC(C)n1c(=O)[nH]c2cnc3cc(F)c(-c4ccc(OCCCN5CCCCC5)nc4)cc3c21 [Example 18, 7-Fluoro-1-isopropyl-8-[6-[3-(1-piperidyl)propoxy]-3-pyridyl]-3H-imidazo[4,5-c]quinolin-2-one]
35 nM	27.8 µM	9.41 µM	CC(C)n1c(=O)n(C)c2cnc3cc(F)c(-c4ccc(OCCC[N+]5([O-])CCCCC5)nc4)cc3c21 [Metabolite A, 7-Fluoro-1-isopropyl-3-methyl-8-[6-[3-(1-oxidopiperidin-1-ium-1-yl)propoxy]-3-pyridyl]imidazo[4,5-c]quinolin-2-one]

The next lines start with the compound.

Structure (SMILES)	IC50 (ATM kinase)	IC50 (PI3K-α)	IC50 (ATR kinase)
CC(C)n1c(=O)n(C)c2cnc3cc(F)c(-c4ccc(OCCCN5CCCCC5)nc4)cc3c21 [Example 2, 7-Fluoro-1-isopropyl-3-methyl-8-[6-[3-(1-piperidyl)propoxy]-3-pyridyl]imidazo[4,5-c]quinolin-2-one]	0.787 nM	> 12 µM	> 30 µM
CC(C)n1c(=O)n(C)c2cnc3cc(F)c(-c4ccc(OCCCN5CCCC5)nc4)cc3c21 [Example 3, 7-Fluoro-1-isopropyl-3-methyl-8-[6-(3-pyrrolidin-1-ylpropoxy)-3-pyridyl]imidazo[4,5-c]quinolin-2-one]	0.824 nM	11.4 µM	> 30 µM
CC(C)n1c(=O)n(C)c2cnc3cc(F)c(-c4ccc(OCCCN5CCC5)nc4)cc3c21 [Example 4, 8-[6-[3-(azetidin-1-yl)propoxy]-3-pyridyl]-7-fluoro-1-isopropyl-3-methyl-imidazo[4,5-c]quinolin-2-one]	1.59 nM	4.52 µM	> 30 µM
CC(C)n1c(=O)n(C)c2cnc3ccc(-c4ccc(OCCCN(C)C)nc4)cc3c21 [Example 6, 8-[6-[3-(dimethylamino)propoxy]-3-pyridyl]-1-isopropyl-3-methyl-imidazo[4,5-c]quinolin-2-one]	0.398 nM	0.184 µM	> 20.7 µM
CC(C)n1c(=O)n(C)c2cnc3ccc(-c4ccc(OCCCN5CCCC5)nc4)cc3c21 [Example 7, 1-isopropyl-3-methyl-8-[6-(3-pyrrolidin-1-ylpropoxy)-3-pyridyl]imidazo[4,5-c]quinolin-2-one]	0.256 nM	0.222 µM	> 30 µM
CC(C)n1c(=O)n(C)c2cnc3ccc(-c4ccc(OCCCN5CCC5)nc4)cc3c21 [Example 8, 8-[6-[3-(Azetidin-1-yl)propoxy]-3-pyridyl]-1-isopropyl-3-methyl-imidazo[4,5-c]quinolin-2-one]	0.698 nM	0.661 µM	
CC(C)n1c(=O)n(C)c2cnc3ccc(-c4ccc(OCCCN5CCCCC5)nc4F)cc3c21 [Example 9, 8-[2-Fluoro-6-[3-(1-piperidyl)propoxy]-3-pyridyl]-1-isopropyl-3-methyl-imidazo[4,5-c]quinolin-2-one]	< 0.453 nM	5.75 µM	> 30 µM
